Patent publication US20260210948A1, “FLUORESCENCE-BASED ASSAY FOR IDENTIFICATION OF PROTAC LIGANDS FOR HECT-TYPE E3 LIGASES” (Purdue Research Foundation, priority 2022, published 2026)

Tests used:
[1] = system: Rsp5; assay: Iodoacetamide inhibition assay, fluorescence polarization; format: biochemical, yeast (S. cerevisiae); settings: Rsp5 incubated with iodoacetamide 12.5-500 μM for 1 hour
Experimental: Inhibition assays were conducted by first incubating 0.5 μm Rsp5/NEDD4L-Rsp5HYBRID with varying concentration of iodoacetamide (12.5-500 μM) for 1 hour in the reaction buffer (50 mM Tris pH 7.4, 100 mM NaCl, 1 mg/ml BSA). Fluorescence polarization was then measured after adding 0.25 μm E1 enzyme, 0.5 μm UbcH7, 100 μm Ub and 10 μm fluorescein-labeled peptide to the reaction well. The Z-factor (Z′) for the assay was calculated using eight replicates of the positive control (no iodoacetamide addition) and negative control (500 μM iodoacetamide addition). The initial slopes of each of the 16 reactions were calculated, followed by calculation of the positive control and negative control means (μ_+ and μ_−) and standard deviations (σ_+ and σ_−). The mean and standard deviation values were then used to calculate the Z-factor using the following formula (II):
(§1) All assays were carried out at least in triplicate, at a final reaction volume of 100 μL, and utilizing Grenier 96 well plates (Product no. 655097). Fluorescence polarization was measured using a Synergy H4 Plate Reader (BioTek) using 485 nm excitation and 528 nm emission filters.
An iodoacetamide inhibition assay to mimic peptide displacement conditions was performed to test robustness and reproducibility. […]

[2] = system: Rsp5; assay: Peptide-ubiquitination fluorescence polarization assay with Rsp5; format: biochemical, yeast (S. cerevisiae); settings: Uba1, UbcH7, Rsp5 lacking the C2 domain, ATP and Ub; λex=485 nm; λem=528 nm
Experimental: Assays were performed by mixing […] enzyme, 0.5 μm UbcH7, 0.5 μm Rsp5/NEDD4L-Rsp5HYBRID, 100 μM Ub and 10 μM fluorescein-labeled peptide in (50 mM Tris pH 7.4, 100 mM NaCl, 1 mg/ml BSA) buffer. Reaction mixtures were left to equilibrate at room temperature for 10 minutes before taking measurements. Reactions were then started by adding 100 mM ATP. A sample of this reaction was also utilized for SDS-PAGE gel electrophoresis.
as §1
Target sequence in this assay (P39940 229-809 limits assumed): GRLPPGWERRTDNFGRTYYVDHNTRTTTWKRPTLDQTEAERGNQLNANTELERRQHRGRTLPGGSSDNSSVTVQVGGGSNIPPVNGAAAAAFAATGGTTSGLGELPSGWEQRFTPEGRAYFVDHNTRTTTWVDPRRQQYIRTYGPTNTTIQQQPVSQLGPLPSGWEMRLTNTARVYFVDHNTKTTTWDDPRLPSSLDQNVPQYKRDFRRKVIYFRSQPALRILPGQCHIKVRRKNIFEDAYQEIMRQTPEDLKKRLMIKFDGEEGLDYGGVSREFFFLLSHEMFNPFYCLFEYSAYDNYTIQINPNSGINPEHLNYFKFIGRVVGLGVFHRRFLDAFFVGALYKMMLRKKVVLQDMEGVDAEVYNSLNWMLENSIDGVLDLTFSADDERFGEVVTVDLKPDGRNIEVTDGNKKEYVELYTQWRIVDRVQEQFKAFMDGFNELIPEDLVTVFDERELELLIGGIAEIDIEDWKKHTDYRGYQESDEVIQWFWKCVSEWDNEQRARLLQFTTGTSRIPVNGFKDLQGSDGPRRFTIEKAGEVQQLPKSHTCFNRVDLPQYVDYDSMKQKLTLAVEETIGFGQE
A PPxY peptide based on a yeast vesicular snare protein (Sna4) containing the PPxY motif was designed, synthesized, and labeled with fluorescein at the N-terminus. An assay utilizing Uba1 (E1 ubiquitin (Ub)-activating enzyme), UbcH7 (E2 Ub-conjugating enzyme) and Rsp5 ([…] E3 Ub-ligase), which lacked the C2 domain to simplify in vitro screening, in the presence of adenosine triphosphate (ATP) and Ub was performed. Fluorescence polarization (FP) was recorded to monitor ubiquitination of the peptide. […] Ubiquitination of the PPxY peptide was confirmed by SDS-PAGE. […] No fluorescence polarization occurred in the absence of UbcH7, Rsp5, Ub, or ATP.

Row | Compound | rate of peptide ubiquitination (initial slope) [1] | fluorescence polarization (ubiquitination of the peptide) [2]
1 | NC(=O)CI [Iodoacetamide, iodoacetamide] | decreasing the rate of peptide ubiquitination | 
2 | NKQSLVESPPPY [PPxY peptide, peptide mimicking residues 128-138 of yeast Sna4 with PPPY motif, fluorescein labeled on the N-terminus] |  | increase in fluorescence polarization
